Results reported in patent US9085761B1, “Methods and compositions for amplification of nucleic acids” (Affymetrix, Inc., priority 2012, dated 2015).

Legend:
Taq DNA Polymerase = biological target: T1, Taq DNA Polymerase (Thermus aquaticus, UniProt P19821); assay: PCR amplification of a 455 bp human numb target with Taq DNA Polymerase in the presence of surfactant, product seen on agarose gel; assay type: biochemical; conditions: for PCR product of the expected size: FIG. 1, diluted Taq with 0.00011% Tween-20 and NP-40 carry-over; for Function: Table 1 summary: surfactants or blocked co-polymers that worked in the assay used and those that did not
T1 construct: made in house
T1 sequence (P19821 whole entry): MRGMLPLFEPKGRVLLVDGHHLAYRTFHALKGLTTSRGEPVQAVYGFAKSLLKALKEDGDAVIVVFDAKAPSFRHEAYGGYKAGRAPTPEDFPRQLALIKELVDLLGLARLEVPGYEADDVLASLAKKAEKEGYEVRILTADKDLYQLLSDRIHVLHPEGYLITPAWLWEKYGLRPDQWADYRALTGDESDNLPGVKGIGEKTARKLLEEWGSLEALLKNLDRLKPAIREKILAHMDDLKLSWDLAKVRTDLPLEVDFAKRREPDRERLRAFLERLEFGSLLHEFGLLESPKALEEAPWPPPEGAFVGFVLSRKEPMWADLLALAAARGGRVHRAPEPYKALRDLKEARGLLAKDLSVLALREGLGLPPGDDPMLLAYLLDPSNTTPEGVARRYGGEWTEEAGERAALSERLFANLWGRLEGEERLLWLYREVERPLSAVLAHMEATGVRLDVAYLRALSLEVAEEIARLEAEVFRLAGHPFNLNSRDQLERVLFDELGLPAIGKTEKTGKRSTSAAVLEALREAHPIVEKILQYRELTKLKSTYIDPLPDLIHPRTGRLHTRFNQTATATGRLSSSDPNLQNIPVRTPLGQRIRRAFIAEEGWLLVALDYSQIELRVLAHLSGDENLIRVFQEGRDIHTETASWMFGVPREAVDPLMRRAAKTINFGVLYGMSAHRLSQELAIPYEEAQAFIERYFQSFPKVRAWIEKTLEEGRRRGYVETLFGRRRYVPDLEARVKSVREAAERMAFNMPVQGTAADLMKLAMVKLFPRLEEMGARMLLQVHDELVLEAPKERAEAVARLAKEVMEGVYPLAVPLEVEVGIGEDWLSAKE
Protocol: In order to test the efficacy of detergents on Taq DNA Polymerase, a stock of Taq DNA Polymerase at a base concentration of 111 units/ul was diluted to 5 units/ul in a storage buffer that lacked detergents. The standard Taq DNA Polymerase storage buffer has 0.5% Tween-20 and 0.5% NP-40. In this example 0.625 units of Taq were added per 25 ul reaction, so that represents a change in final detergent concentration of 0.0025% each detergent to 0.00011% of each. A 455 bp single-copy target from the human numb gene was PCR-amplified from 1 ng human genomic DNA in a 25 ul reaction with 0.625 units of the diluted Taq DNA polymerase. The cycling conditions were 95° C. for 2 minutes; 35 cycles of 95° C. for 10 seconds, 55° C. for 20 seconds, and 72° C. for 30 seconds; 72° C. for 5 minutes; and 10° C. until required. An aliquot of 10 ul was run on a 1.5% agarose/ethidium bromide gel.
In FIG. 1, the results of the initial screen of several non-ionic and zwitterionic detergents are shown. In this example there is residual Tween-20 and NP-40 in the enzyme storage buffer. The concentrations of surfactants listed are the final concentration of that surfactant in the assay. All conditions in the example, including the “no detergent” condition, have 0.00011% Tween-20 and 0.00011% NP-40 resulting from carry-over from the enzyme storage buffer. […] As expected Tween-20 and NP-40 worked when present at 0.01% and 0.1%. […] A0-12-2 worked at 0.01% and PEO(10)SAP worked at 0.01, 0.1 and 1%. It is clear that in addition to the standard non-ionic detergents with PEOn, a zwitterionic or ylide with that polymer will also contribute to PCR product generation.
Because a small amount of Tween-20 and NP-40 was carried over in the previous experiment, Taq DNA Polymerase was purified without the addition of detergents after the lysis step to provide a “detergent-free” Taq for use in the next example. The previous numb target and reaction conditions were used with 0.625 units of Taq per reaction.
To further test the effectiveness of PEOn-derivatives, the denaturation temperature was changed from 95° C. to 98° C. in the cycling protocol. This increase in temperature adds additional stress to the function of Taq DNA Polymerase. A selection of PLURONIC® and TETRONIC® surfactants were tested (labels in the figures are abbreviated, for example, “T908” refers to TETRONIC® 908 and “P F87” refers to PLURONIC® F87). In addition, TETRONIC® 904 and 1107 were modified to amine-oxide, forms and then tested.

[1] = system: thermostable DNA polymerase; assay: Evaluation of protecting groups for reversible modification (hot-start inactivation) of thermostable polymerase; assay type: biochemical; conditions: reactivity tested in Tris pH 8 or Tricine pH 8.8
Protocol: Three classes of protecting groups were evaluated: 2,3-substituted maleic anhybrides, alpha-activated compounds that can undergo beta-elimination and molecules that can undergo intramolecular cyclic displacement or assisted elimination. The experimental compounds had the general structure:
Where Y could be N-hydroxysuccinimide (NHS), p-nitrophenol (pNP), or imidazole and X could be CONMe2, MeSO2, CN, NO2, CO2Me, (CH2)2SMe, N(CH3)CHO, or CH2C(O)CH3. The reactivity was tested in Tris pH 8 or Tricine pH 8.8. Buffer pH measurements are at room temperature (˜25° C.). […]

[2] = Cloud point of surfactant; assay type: physicochemical; conditions: about 1% detergent concentration in 6×SSPE buffer
Protocol: In some aspects surfactants are selected for use in the methods because they have a cloud point (temperature at which the solid begins to precipitate and give the fluid a cloudy appearance) greater than or equal to 80° C., greater than or equal to 90° C. and in particularly preferred aspects the cloud point is greater than about 100° C. (in each case when measured at about 1% aqueous). The cloud point is the temperature above which a surfactant solution separates into a detergent rich phase and a detergent poor phase (see, Rosen et al. Surfactants and interfacial Phenomena, ^3rd ed. 2004, Hoboken; John Wiley & Sons, Inc. and Neugebauer, J. M. Detergents: an overview, Methods Enzymol, 1990, 182, p. 239-53). The separation is visualized as turbidity within the solution. An increase in temperature favors micelle formation; the rapid growth of micelles along with intermicellar attraction likely results in the formation of large particles that can precipitate out of solution, thus causing turbidity. This phase separation is reversible upon cooling. […]
The amine oxide detergents of the present invention have higher cloud points than their non-amine oxide counterparts. For example, PEO(10)stearlyamine has a cloud point of 60° C. compared to PEO(10)stearylamine N-oxide's cloud point of greater than 100° C., in both cases when measured at about 1% detergent concentration in 6×SSPE buffer. […]

Compound | PCR product of the expected size (Taq DNA Polymerase; 0.01% surfactant final) | PCR product of the expected size (Taq DNA Polymerase; 0.1% surfactant final) | PCR product of the expected size (Taq DNA Polymerase; 1% surfactant final) | Function (Taq DNA Polymerase) | also measured
Polyethoxylated/Polypropoxylated (isodecyloxypropyl)amine N-Oxide [AO-405] | – | – | – | – | PCR product of the expected size (Taq DNA Polymerase; concentration not given): no visible product
CS(=O)(=O)CCOC(=O)Oc1ccc([N+](=O)[O-])cc1 [MSEC, 2-(Methylsulfonyl)ethyl 4-nitrophenyl carbonate] | – | – | – | – | effectiveness as reversible modifier of polymerase [1]: most effective
CCCCCCCCCCCC[N+]([O-])(CCO)CCO [AO-12-2, N,N-Bis(2-hydroxyethyl)laurylamine N-Oxide] | resulted in a product | not | not | – | PCR product of the expected size (Taq DNA Polymerase; 0.01% surfactant final, listed as A0-12-2): worked
PEO(10) Stearyl (3-sulfo-propyl)-ammonium [PEO(10) SAPS] | – | – | – | YES | –
NP 40 [reference compound] | worked | worked | – | YES | –
Polyethoxylated (10) Stearylamine N-Oxide [PE0 (10) SAO] | worked | worked | worked | YES | PCR product (Taq DNA Polymerase; detergent-free Taq DNA Polymerase, FIG. 2, 3, 4): PCR product was observed; cloud point [2]: greater than 100 °C
